Laboratory results reported in publication PMC9481563, “Structural insights into the pSer/pThr dependent regulation of the SHP2 tyrosine phosphatase in insulin and CD28 signaling” (Nature Communications, 2022).
Residue numbers refer to the chain shown, from its start.

Experiments:
Format in all cases: binding
Conditions in all cases: competitive FP titration vs CF-ppIRS1 100 nM, protein fixed; n = 3 technical replicates
[1] = target: T1, inactive SHP2 catalytic domain Hillmut (K274E) (Homo sapiens, UniProt Q06124, C459S/K274E); test: Fluorescence polarization titrations, SHP2 Hillmut
T1 construct: SHP2 K274E (Hillmut); 219-528 + C459S; His6 (N); made in house; host or cells: E. coli BL21 (DE3)
T1 sequence (Q06124 219-528 K274E/C459S): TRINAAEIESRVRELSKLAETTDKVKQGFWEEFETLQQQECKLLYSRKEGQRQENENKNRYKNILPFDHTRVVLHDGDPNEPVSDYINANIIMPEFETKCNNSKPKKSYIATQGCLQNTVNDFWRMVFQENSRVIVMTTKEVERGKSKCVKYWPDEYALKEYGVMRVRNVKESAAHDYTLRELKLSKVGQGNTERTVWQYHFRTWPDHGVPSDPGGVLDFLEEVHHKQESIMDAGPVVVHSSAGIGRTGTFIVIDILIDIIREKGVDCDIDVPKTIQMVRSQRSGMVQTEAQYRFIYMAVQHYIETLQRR
Excerpt: (§1) The two SH2 domains of PI3KR1 (UniProt P27986; nSH2: 321−433 cSH2: 614–724) were cloned from HEK293T cDNA pool, and subsequently ligated into a modified pET vector encoding maltose binding protein (MBP) tag on the N-terminal and a hexa-His tag on the C-terminal end of the construct. Similarly, the catalytic, tyrosine phosphatase domains of PTPRε (P23469 first domain: 107–399) and PTP1B (P18031; 1–229) were cloned from a HEK293T cDNA pool, and inserted into a pBH4 vector encoding an N-terminal His6 tag (for the final binding experiments, an MBP-tagged version of PTPRε was employed). […] Surface mutants of SHP2 were constructed from the SHP2-C459S plasmid, using the QuickChange protocol. The D425A and H426A catalytic site mutants and all enzymatically active surface mutants were generated similarly, but from the plasmid encoding the wild-type catalytic domain of SHP2. Wild-type C-terminal FLAG-tagged human IRS1 was cloned between HindIII-NotI sites of pcDNA3.1(+) vector (#V79020 Invitrogen, Waltham MA USA). Ser/Ala mutant IRS1 was generated by replacing the region of S616/S636/S666/S736 positions with a cassette carrying S616A/S636A/S666A/S736A mutations. All constructs were validated by complete Sanger sequencing before protein expression and purification. The oligonucleotide sequences used are shown on Supplementary table 4.
(§2) Fluorescence polarization (FP) assays were performed as follows: In direct titration experiments, protein concentration was varied in an 1/2 or 2/3 dilution series (90 µl protein+ 45 µl mix), while concentration of the reporter peptide (CF-ppIRS1) was kept constant at 100 nM. In competitive titrations, the labelled CF-ppIRS1 peptide and protein were both fixed (at 50–80% saturation) and the unlabelled competitor peptide concentration was varied. Fluorescence polarization was always measured in triplicates, on black Corning low volume round bottom 384-well plates (with 10 ul volumes), using a BioTek Cytatation 5 reader, with the green fluorescent protein (GFP) cube filter set (ex: 485/20, em: 528/20, gain: 50, height: 7.5). Fluorescence polarization data was evaluated on Origin 2018. The dissociation constants (Kd) were determined by using the appropriate quadratic and cubic equations inserted as a user-defined function and applying nonlinear fit until convergence. The fitting formulae are shown at Supplementary note 1. Kd ratio distributions for Fig. 6 were calculated using a Monte-Carlo approach (Supplementary note 2).
(§3) Supplementary note 1. Curve fitting of fluorescence polarization (FP) measurements.
(§4) To evaluate polarization values from direct and competitive titrations, we used the following fitting formulae in Origin 2018, as detailed below.
(§5) Direct titration curves were fitted according to the following formula: […]
(§6) Where Imin is the minimal anisotropy, Imax is the (asymptotically estimated) maximal intensity. K0 is the starting concentration of the protein, while T0 is the (fixed) concentration of the labelled peptide and Kd is the dissociation constant.
(§7) Competitive titration curves were fitted with a different formula (In addition to those defined above, constants KdT KdB B0 T0 and D0 here refer to the Kd derived from the direct titration, the unknown Kd of the analyte, the labelled peptide concentration, the competitor peptide concentration as well as the protein concentration, respectively).
(§8) The ± sign refers to two different scenarios, depending on the sign of discriminant (KdT > KdB or […]). For unknown analytes, the choice of sign is not arbitrary, as the fitting will not converge unless the appropriate formula is chosen: […]
(§9) Where A, B and C correspond to the following expressions: […]

[2] = target: T2, inactive SHP2 catalytic domain Loopmut (K364E) (Homo sapiens, UniProt Q06124, C459S/K364E); test: Fluorescence polarization titrations, SHP2 Loopmut
T2 construct: SHP2 K364E (Loopmut); 219-528 + C459S; His6 (N); made in house; host or cells: E. coli BL21 (DE3)
T2 sequence (Q06124 219-528 K364E/C459S): T1 sequence (Q06124 219-528 K274E/C459S) with E56K, K146E
Excerpt: as §1, §2, §3, §4, §5, §6, §7, §8, §9

[3] = target: T3, inactive SHP2 catalytic domain Loopinv (R362E) (Homo sapiens, UniProt Q06124, C459S/R362E); test: Fluorescence polarization titrations, SHP2 Loopinv
T3 construct: SHP2 R362E (Loopinv); 219-528 + C459S; His6 (N); made in house; host or cells: E. coli BL21 (DE3)
T3 sequence (Q06124 219-528 R362E/C459S): T1 sequence (Q06124 219-528 K274E/C459S) with E56K, R144E
Excerpt: as §1, §2, §3, §4, §5, §6, §7, §8, §9

Compound | Kd [1] [µM] | Kd [2] [µM] | Kd [3] [µM] | Kd (competitive titration) [2]
CSCC[C@H](NC(=O)[C@H](Cc1ccc(OP(=O)(O)O)cc1)NC(=O)[C@H](CC(=O)O)NC(=O)[C@H](CO)NC(=O)[C@H](Cc1c[nH]cn1)NC(=O)[C@H](CC(C)C)NC(=O)[C@H](CC(C)C)NC(=O)[C@H](CCCNC(=N)N)NC(=O)[C@H](CO)NC(=O)[C@@H](N)CCCNC(=N)N)C(=O)N[C@@H](CC(N)=O)C(=O)N[C@@H](CCSC)C(=O)N[C@H](C(=O)N1CCC[C@H]1C(=O)N[C@@H](CCCNC(=N)N)C(=O)N[C@@H](CCCNC(=N)N)C(=O)O)[C@@H](C)O [p0CD28] | 54.6 ± 5.12 | 20.5 ± 1.53 | 45.7 ± 7.49 | 
CSCC[C@H](NC(=O)[C@@H]1CCCN1C(=O)[C@H](CCSC)NC(=O)[C@H](Cc1ccc(OP(=O)(O)O)cc1)NC(=O)[C@H](CC(=O)O)NC(=O)CNC(=O)[C@H](CO)NC(=O)CNC(=O)[C@H](CCCCN)NC(=O)[C@H](CCCNC(=N)N)NC(=O)CN)C(=O)N[C@@H](CO)C(=O)N1CCC[C@H]1C(=O)N[C@@H](CCCCN)C(=O)N[C@@H](CO)C(=O)O [p0IRS1] | 83.9 ± 2.58 | 23.3 ± 0.9 | 61.8 ± 16.2 | bound stronger
CC[C@H](C)[C@H](NC(=O)[C@H](CC(N)=O)NC(=O)[C@@H](NC(=O)[C@H](Cc1ccc(OP(=O)(O)O)cc1)NC(=O)[C@H](CCC(=O)O)NC(=O)CNC(=O)[C@@H]1CCCN1C(=O)[C@H](CO)NC(=O)[C@H](CCCCN)NC(=O)[C@@H]1CCCN1C(=O)[C@@H](N)CCC(=O)O)C(C)C)C(=O)N[C@@H](CCC(=O)O)C(=O)N[C@@H](Cc1ccccc1)C(=O)O [p0SRev-IRS1] | 14.8 ± 0.88 | 7.73 ± 1.08 | 9.35 ± 1.54 | 
CSCC[C@H](NC(=O)[C@H](Cc1ccc(OP(=O)(O)O)cc1)NC(=O)[C@H](CC(=O)O)NC(=O)[C@H](CO)NC(=O)[C@H](Cc1c[nH]cn1)NC(=O)[C@H](CC(C)C)NC(=O)[C@H](CC(C)C)NC(=O)[C@H](CCCNC(=N)N)NC(=O)[C@H](CO)NC(=O)[C@@H](N)CCCNC(=N)N)C(=O)N[C@@H](CC(N)=O)C(=O)N[C@@H](CCSC)C(=O)N[C@H](C(=O)N1CCC[C@H]1C(=O)N[C@@H](CCCNC(=N)N)C(=O)N[C@@H](CCCNC(=N)N)C(=O)O)[C@@H](C)OP(=O)(O)O [ppCD28] | 11 ± 0.57 | 6.66 ± 0.38 | 15.2 ± 0.49 | 
CSCC[C@H](NC(=O)[C@@H]1CCCN1C(=O)[C@H](CCSC)NC(=O)[C@H](Cc1ccc(OP(=O)(O)O)cc1)NC(=O)[C@H](CC(=O)O)NC(=O)CNC(=O)[C@H](CO)NC(=O)CNC(=O)[C@H](CCCCN)NC(=O)[C@H](CCCNC(=N)N)NC(=O)CN)C(=O)N[C@@H](COP(=O)(O)O)C(=O)N1CCC[C@H]1C(=O)N[C@@H](CCCCN)C(=O)N[C@@H](CO)C(=O)O [ppIRS1] | 2.23 ± 0.14 | 3.01 ± 0.42 | 7.53 ± 1.1 | bound stronger
CC[C@H](C)[C@H](NC(=O)[C@H](CC(N)=O)NC(=O)[C@@H](NC(=O)[C@H](Cc1ccc(OP(=O)(O)O)cc1)NC(=O)[C@H](CCC(=O)O)NC(=O)CNC(=O)[C@@H]1CCCN1C(=O)[C@H](COP(=O)(O)O)NC(=O)[C@H](CCCCN)NC(=O)[C@@H]1CCCN1C(=O)[C@@H](N)CCC(=O)O)C(C)C)C(=O)N[C@@H](CCC(=O)O)C(=O)N[C@@H](Cc1ccccc1)C(=O)O [ppSRev-IRS1] | 2.56 ± 0.28 | 0.99 ± 0.07 | 0.67 ± 0.16 | 
